This is an account of results in publication PMC9606171, “Synthetic PPAR Agonist DTMB Alleviates Alzheimer’s Disease Pathology by Inhibition of Chronic Microglial Inflammation in 5xFAD Mice” (Neurotherapeutics, 2022).

Data set [1] concerns RAW 264.7 macrophage cells. Put plainly: Griess assay, LPS-induced NO production. It is filed as cell-based. The settings on record: LPS (1 µg/mL), 24 h. Here is the method:
Griess assay (Promega) was performed under manufacturer’s instruction to measure the concentration of nitrite after inducing the inflammatory response in RAW 264.7 macrophage cells by LPS treatment. The well-known PPAR selective agonists, such as WY14643 (PPARα), GW501516 (PPAR-β/δ), and rosiglitazone (PPARγ), were used as positive controls.
Background: Griess reagent forms a coloured azo dye with nitrite.

Data set [2] has as its target T1, recombinant human PPAR β/δ LBD (Homo sapiens, UniProt Q03181).
T1 sequence (Q03181 211-439 limits assumed): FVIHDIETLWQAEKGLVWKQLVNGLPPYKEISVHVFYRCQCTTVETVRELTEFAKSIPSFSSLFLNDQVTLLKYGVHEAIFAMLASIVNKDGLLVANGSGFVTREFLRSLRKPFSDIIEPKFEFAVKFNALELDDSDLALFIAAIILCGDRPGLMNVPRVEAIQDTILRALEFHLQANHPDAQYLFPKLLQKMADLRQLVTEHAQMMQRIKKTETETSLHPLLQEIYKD
The data set can be described thus: CNBr-bead pull down assay, PPAR β/δ LBD. As to conditions: drug conjugated CNBr beads. In kind it is binding. Here is the method: (§1) CNBr Sepharose 4B beads were prepared and activated according to the instruction. 100 mg of CNBr activated Sepharose 4B beads were incubated with drugs or DMSO for 18 h at 4 °C. The drug conjugated beads reacted to his-tagged recombinant PPAR α, β/δ, and γ protein. After 24 h of incubation, we confirmed whether recombinant protein binds to the drug conjugated bead through western blotting experiment.

Data set [3] deals with T2, PPARγ (Homo sapiens, UniProt P37231).
T2 construct: pcDNA5-GAL4-PPAR LBD, pG5-luc, and Rluc vector (as control) were transfected into HEK293A cells; expressed in transfected cells; host or cells: HEK293A
T2 sequence (P37231 238-503 limits assumed): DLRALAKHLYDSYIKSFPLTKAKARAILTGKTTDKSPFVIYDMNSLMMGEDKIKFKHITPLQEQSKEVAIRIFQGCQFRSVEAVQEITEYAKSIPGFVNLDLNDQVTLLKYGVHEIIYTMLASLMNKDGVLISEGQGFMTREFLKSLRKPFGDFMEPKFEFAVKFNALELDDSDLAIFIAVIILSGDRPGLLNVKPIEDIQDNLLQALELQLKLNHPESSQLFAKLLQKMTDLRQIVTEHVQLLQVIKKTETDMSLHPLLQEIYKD
The data set can be described thus: Gal4-transactivation luciferase assay in HEK293A cells, PPARγ LBD. In kind it is cell-based. How it is done: HEK293A cells were transfected with the GAL4-reporter plasmids and pGL4.74 (Promega, Madison, WI, USA) as an internal standard through electroporation using a Neon Transfection System (Invitrogen, Carlsbad, CA, USA). All vector materials were provided by Professor Yuichiro Kanno at Toho University. Cells were treated with DTMB and each positive control compound for 24 h after overnight incubation. Cells were then harvested and resuspended in luciferase lysis buffer (Promega), followed by incubation on ice for 10 min. Cell debris was removed by centrifugation at 20,000 × g at 4 °C for 10 min, and the supernatants were used for luciferase assay. Using a dual-luciferase reporter assay system (Promega), luciferase activities were measured according to the manufacturer’s instructions. Experimental firefly luciferase activities were normalized against those of Renilla luciferase.

Data set [4] deals with T3, recombinant human PPARα LBD (Homo sapiens, UniProt Q07869).
T3 sequence (Q07869 239-466 limits assumed): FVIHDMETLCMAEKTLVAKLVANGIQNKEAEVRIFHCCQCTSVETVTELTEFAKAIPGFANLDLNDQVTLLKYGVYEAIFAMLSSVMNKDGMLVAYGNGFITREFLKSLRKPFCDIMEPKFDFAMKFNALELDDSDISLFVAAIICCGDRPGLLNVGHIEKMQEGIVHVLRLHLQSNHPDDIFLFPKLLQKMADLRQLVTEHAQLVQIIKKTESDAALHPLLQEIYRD
The data set can be described thus: CNBr-bead pull down assay, PPARα LBD. It is filed as binding. The settings on record: drug conjugated CNBr beads. Here is the method: as §1

Data set [5] deals with RAW 264.7. The data set can be described thus: Cell viability assay (MTT), RAW 264.7. In kind it is cell-based. As to conditions: 48 h. How it is done:
Cell viability was measured by chromogenic assay involving the biological reduction of 3-(4,5-dimethyl-thiazol-2-yl)-2,5-diphenyltetrazoliumbromide (MTT) to formazan in living cells. Briefly, cells were seeded in 96-well plates in a final volume of 100 μL. After 24 h, the culture media were replaced with fresh media containing DTMB compounds, and the cells were cultured for another 48 h. Next, MTT (5 mg/mL in PBS) was added to the culture medium. The cells were incubated for 1 h in the dark at 37 °C, and the supernatant was then removed from the well. Total MTT solvent (4 mM HCl and 0.1% Nonidet P-40, both in isopropanol) was added to dissolve the formazan crystal, and absorbance was measured at 570 nm using a microplate reader Infinite 200 Pro NanoQuant microplate reader (TECAN, Switzerland).

Data set [6] has as its system 5xFAD mice. The data set can be described thus: Western blot and qPCR of APP and β-/γ-secretase in 5xFAD brain. It is filed as in vivo. The settings on record: 10 mg/kg orally, 3 months. Here is the method: DTMB was synthesized from Daejung Chemicals (Korea) and was dissolved in dimethyl sulfoxide (Sigma Aldrich, St. Louis, MO, USA) for cell-based experiments. To evaluate the effects of DTMB on 5xFAD mice, DTMB (10 mg/kg) and vehicle (1% carboxymethylcellulose and 10% DMSO) were orally administrated to four groups (wild-type, wild-type + DTMB, 5xFAD, and 5xFAD + DTMB) with a 6 day per week for 3 months.
Cells were lysed with lysis buffer containing 50 mM Tris (pH 7.4), 140 mM NaCl, 5 mM EDTA, and a protease inhibitor tablet, followed by sonication. Lysate protein concentrations were determined using Bradford reagents (AMERSCO, MA, USA). Proteins were resolved by sodium dodecyl sulfate (SDS) polyacrylamide gel electrophoresis, transferred to nitrocellulose membranes (Pall Corporation, New York, NY, USA), and incubated with blocking buffer (5% nonfat dry milk in TBS and 0.1% Tween 20) for 30 min. […] The integrated blot density was quantified through ImageJ.
Total RNA was isolated using TRI Reagent (Molecular Research Center, Cincinnati, OH, USA). […] For detection and quantification, a StepOnePlus Real-Time PCR System (Applied Biosystems, Foster City, CA, USA) was used with FastStart Universal SYBR Green Master (Roche, Basel, Switzerland). Real-time qPCR data were analyzed using the comparative CT method. […]

Turning to `COc1ccc(-c2cc(=O)oc3c(C)c(OC(=O)[C@H](Cc4c[nH]c5ccccc45)NC(=O)OC(C)(C)C)ccc23)cc1` [DTMB], in data set [1], the “NO production (nitrite)” value is “reduced NO production in a concentration-dependent manner”; the “inhibition of NO production compared between DTMB and known PPAR agonists” value is “inhibited NO production greater than treatment with the known agonists of PPARα and PPARγ”. In data set [2], the “binding to PPAR LBD (pull-down, western blot)” value is “binds”. Further, the relative luciferase activity entry in data set [3] (HEK293A, 24 h, various concentrations) is “increased luciferase activity”. For the same molecule, the “PPARγ transactivation (luciferase reporter activity) compared to positive control” value in data set [3] (versus positive control) was “lower than the positive controls”. In addition, the “binding to PPAR LBD (pull-down, western blot)” value in data set [4] (PPARα LBD) was “binds”. The “binding to PPARα LBD compared to WY14643 (pull-down)” value in data set [4] is on record as “stronger binding to PPARα LBD than WY14643”. For the same molecule, in data set [5], the “cytotoxicity (MTT)” value was “no cytotoxicity”. In addition, in data set [6] (cortex), the “protein level of β-secretase” value is “slightly decreased”. For the same molecule, in data set [6] (hippocampus), the “APP protein and mRNA level” value is given as “neither changes”.
